Assay results from BindingDB's records for doi:10.1016/j.bmcl.2005.03.089 (Yunnan University, 2022).

Each compound was assayed against Replicase polyprotein 1ab (Severe acute respiratory syndrome coronavirus 2, UniProt P0DTD1) (assay: Inhibition of SARS-CoV-2 MPro incubated for 5 mins by FRET assay).

`CC(C)(O)C1Cc2cc(/C=C3\OC(=O)C(c4cc5c(cc4O)OC(C)(C)C(O)C5)=C3O)ccc2O1` (stereo not drawn) and `CC(C)=CCc1cc(/C=C2\OC(=O)C(c3cc4c(cc3O)OC(C)(C)CC4)=C2O)ccc1O` are within 1.5-fold of each other in IC50: 9.4 µM for the first, 10.3 µM for the second.

In the case of `CC(C)=CCc1cc(/C=C2\OC(=O)C(c3cc(CCC(C)(C)O)c(O)cc3O)=C2O)ccc1O`, the IC50 is reported as 7.7 µM.
